The results in this text go back to patent publication US20230021483A1, “[…] […] METHOD AND CLASSIFICATION OF PHARMACEUTICAL COMPONENTS BY USING TRANSCRIPTOMES” (National Institutes of Biomedical Innovation, Health and …, priority 2016, published 2023).

For one data set, the system named is liver (LV). The data set is described as follows: Whole organ transcriptome (GeneChip microarray) of liver 6 h after adjuvant administration: sDEGs, hierarchical clustering. For adjuvant group (cluster) in LV: key: G1 (interferon signaling); G2 (metabolism of lipids and lipoproteins); G3 (response to stress); G4 (response to wounding); G5 (phosphate-containing compound metabolic process); G6 (phagosome). For cluster of strongly responding individual samples in LV (clustering exceptions): key: G1 (interferon signaling); G2 (metabolism of lipids and lipoproteins); G3 (response to stress); G4 (response to wounding); G5 (phosphate-containing compound metabolic process); G6 (phagosome). The format is in vivo, C57BL/6 mice. As to conditions: for adjuvant group (cluster) in LV: hierarchical clustering; for adjuvant group (cluster) in LV / Number of gene probes with statistically significant changes (sDEGs), LV, Down / Number of gene probes with statistically significant changes (sDEGs), LV, Up: liver; for Number of gene probes with statistically significant changes (sDEGs), LV, Down: fold change <0.667, p<0.01, customized PA call=1; for Number of gene probes with statistically significant changes (sDEGs), LV, Down / Number of gene probes with statistically significant changes (sDEGs), LV, Up: 6 h after adjuvant; for Number of gene probes with statistically significant changes (sDEGs), LV, Up: fold change >1.5, p<0.01, customized PA call=1; for cluster of strongly responding individual samples in LV (clustering exceptions): samples D35_ID_x2 and K3_ID_x3 only.

The next data set relates to circulating blood cells. The data set is described as follows: Hematological cell count of peripheral blood 6 h after adjuvant administration (VetScan HMII). The format is in vivo, C57BL/6 mice. How it is done: Take about 200 μL of blood from the retro-orbital venous plexus with a non-heparinized capillary tube and place the blood into a 1.5 mL tube comprising 2 μL of 10% EDTA-2K for hematological testing. Thoroughly mix the sample by gentle tapping. Stored at room temperature until hematological testing.
The hematological cell count was found using VetScan HMII (Abaxis). 50 μl of EDTA-2K blood sample was diluted by adding 250 μl of saline. Measurements are taken with VetScan HMII by following the instruction.
In a preliminary experiment, FCA and ALM were tested at different points up to 72 hours. […] At 6 hours after adjuvant administration, LV, SP, and LN (both sides) were removed to study the gene expression thereof by using Affimetrix Genechip microarray system (Affymetrix). The sampled organs were each placed in a tube containing RNAlater. The tube was maintained at 4° C. overnight, and stored at −80° C. until use. Blood was also collected after 6 hours from adjuvant administration for general hematological testing. About 200 μL of blood was taken from the retro-orbital venous plexus with a non-heparinized capillary tube and placed into a 1.5 mL tube comprising 2 μL of 10% EDTA-2K for hematological testing. The hematological cell count was found using VetScan HMII (Abaxis). 50 μl of EDTA-2K blood sample was diluted by adding 250 μl of saline. Measurements were taken with VetScan HMII by following the instruction.
The effect of adjuvant administration with respect to the changes in several hematological parameters was investigated. The following parameters were studied: white blood cells (WBC), lymphocytes (LYM), monocytes (MON), granulocytes (GRA), relative (%) content of lymphocytes (LY %), relative (%) content of monocytes (MO %), relative (%) content of granulocytes (GR %), red blood cells (RBC), hemoglobins (Hb, HGB), hematocrits (HCT), mean corpuscular volume (MCV), mean corpuscular hemoglobins (MCH), mean corpuscular hemoglobin concentration (MCHC), red blood cell distribution width (RDW), platelets (PLT), platelet concentration (PCT), mean platelet volume (MPV), and platelet distribution width (PDW).

The mark [1] stands for this setting: peripheral blood 6 h after administration.

For the molecule `CCOCc1nc2c(N)nc3ccccc3c2n1CC(C)(C)O` [R848, 4-amino-2-(ethoxymethyl)-a,a-dimethyl-1H-imidazo[4,5-c]quinoline-1-ethanol], the “adjuvant group (cluster) in LV” value with liver (LV) was “G1”. In the data set on circulating blood cells (setting [1]), the leukopenia entry is reported as “caused leukopenia” and the lymphopenia entry is reported as “strongly induced”.

As for “K3: B class CpG ODN (ATCGACTCTCGAGCGTTCTC), TLR9 ligand (chemistry not given here)”, in the data set with liver (LV) (i.d. administration), the “Number of gene probes with statistically significant changes (sDEGs), LV, Down” value is listed as 22 and the “Number of gene probes with statistically significant changes (sDEGs), LV, Up” value is given as 10. For the same molecule, in the data set with liver (LV) (i.p. administration), the “Number of gene probes with statistically significant changes (sDEGs), LV, Down” value is recorded as 50 and the “Number of gene probes with statistically significant changes (sDEGs), LV, Up” value is on record as 18. For the same molecule, in the data set on liver (LV), the “cluster of strongly responding individual samples in LV (clustering exceptions)” value is reported as “G2”.

As for `Cc1ccc2c(=O)c3cccc(CC(=O)O)c3oc2c1C` [DMXAA, 5,6-dimethylxanthenone-4-acetic acid], the “adjuvant group (cluster) in LV” value in the data set with liver (LV) is “G1”. In addition, in the data set on liver (LV) (i.d. administration), the “Number of gene probes with statistically significant changes (sDEGs), LV, Down” value came to 101 and the “Number of gene probes with statistically significant changes (sDEGs), LV, Up” value amounted to 162.

For the molecule `CC(O)COC[C@H]1O[C@@H]2O[C@H]3[C@H](O)[C@@H](O)[C@@H](O[C@H]4[C@H](O)[C@@H](O)[C@@H](O[C@H]5[C@H](O)[C@@H](O)[C@@H](O[C@H]6[C@H](O)[C@@H](O)[C@@H](O[C@H]7[C@H](O)[C@@H](O)[C@@H](O[C@H]8[C@H](O)[C@@H](O)[C@@H](O[C@H]1[C@H](O)[C@H]2O)O[C@@H]8COCC(C)O)O[C@@H]7COCC(C)O)O[C@@H]6COCC(C)O)O[C@@H]5COCC(C)O)O[C@@H]4COCC(C)O)O[C@@H]3COCC(C)O` (stereo partly drawn) [bCD, Hydroxypropyl-beta-cyclodextrin], the “adjuvant group (cluster) in LV” value in the data set with liver (LV) is “G2”. Further, the “Number of gene probes with statistically significant changes (sDEGs), LV, Down” value in the data set on liver (LV) (i.d. administration) was determined as 315; in the data set on liver (LV) (i.p. administration), 20. Besides, the “Number of gene probes with statistically significant changes (sDEGs), LV, Up” value came out at 107 in the data set with liver (LV) (i.d. administration) and 14 in the data set with liver (LV) (i.p. administration). Moreover, in the data set with circulating blood cells (setting [1]), the “monocytosis (monocytes in blood)” value is reported as “clearly induced”.

Consider “heptanoyl-γ-D-glutamyl-(L)-meso-diaminopimelyl-(D)-alanine [FK565]”, for which, in the data set with liver (LV), the “adjuvant group (cluster) in LV” value is recorded as “G3”. In addition, in the data set on liver (LV) (i.d. administration), the “Number of gene probes with statistically significant changes (sDEGs), LV, Down” value came out at 1972 and the “Number of gene probes with statistically significant changes (sDEGs), LV, Up” value came to 2094. In the data set on circulating blood cells (mouse, in vivo), the “granulocytosis (granulocytes in blood)” value was “caused granulocytosis”, the leukopenia entry is reported as “caused leukopenia” and the lymphopenia result is recorded as “strongly induced”.

With “D35: A class CpG ODN (5′-GGTGCATCGATGCAGGGGGG-3′), TLR9 ligand (DNA GGTGCATCGATGCAGGGGGG; chemistry not given here)”, in the data set on liver (LV) (i.d. administration), the “Number of gene probes with statistically significant changes (sDEGs), LV, Down” value was 36 and the “Number of gene probes with statistically significant changes (sDEGs), LV, Up” value is recorded as 15. For the same molecule, in the data set on liver (LV), the “cluster of strongly responding individual samples in LV (clustering exceptions)” value was “G2”.

On to `Nc1nc2c(ncn2[C@@H]2O[C@@H]3COP(=O)(O)O[C@H]4[C@@H](O)[C@H](n5cnc6c(=O)[nH]c(N)nc65)O[C@@H]4COP(=O)(O)O[C@H]3[C@H]2O)c(=O)[nH]1` [cdiGMP, Cyclic diguanylate monophosphate], for which the “adjuvant group (cluster) in LV” value in the data set on liver (LV) is “G1”. Moreover, the “monocytosis (monocytes in blood)” value in the data set on circulating blood cells (setting [1]) is recorded as “clearly induced”.

Take `Nc1nc2c(ncn2[C@@H]2O[C@@H]3COP(=O)(O)O[C@H]4[C@@H](O)[C@H](n5cnc6c(N)ncnc65)O[C@@H]4COP(=O)(O)O[C@@H]2[C@@H]3O)c(=O)[nH]1` [cGAMP, Cyclic [G(2′,5′)pA(3′,5′)p]]: the “adjuvant group (cluster) in LV” value with liver (LV) is reported as “G1”. For the same molecule, in the data set with liver (LV) (i.d. administration), the “Number of gene probes with statistically significant changes (sDEGs), LV, Down” value worked out at 248 and the “Number of gene probes with statistically significant changes (sDEGs), LV, Up” value was 841. Also, in the data set on circulating blood cells (setting [1]), the “monocytosis (monocytes in blood)” value is on record as “clearly induced”.

As for Monophosphoryl lipid A [MPLA], in the data set with liver (LV) (i.d. administration), the “Number of gene probes with statistically significant changes (sDEGs), LV, Down” value stood at 24 and the “Number of gene probes with statistically significant changes (sDEGs), LV, Up” value is recorded as 9. Besides, the “monocytosis (monocytes in blood)” value in the data set with circulating blood cells (setting [1]) was “clearly induced”.
